Experimental data from patent USRE38090E1, “3′-substituted nucleoside derivative” (Taiho Pharmaceutical Co., Ltd., priority 1994, dated 2003).
Values after ≈ are worked out from the molar mass of the structure shown. Counter-ions that a name gives are not always drawn.

Key:
[1] = tested on: Murine Leukemia P388 cells; experiment: Survival effect against murine leukemia P388; assay type: in vivo; conditions: P388 implanted i.p. in female CDFI mice
Method: Survival effect against murine leukemia P388:
Murine Leukemia P388 cells (1×10^6 cells) were implanted intraperitoneally in three female CDFI mice (aged 8 weeks) per group. On the day subsequent to the implantation and the fifth day, test compounds at varied concentrations were administered intraperitoneally to their corresponding groups of mice. Average survival days of each group were determined to find a survival rate (T/C, %) in accordance with the following equation.

Human KB cells = experiment: Cytotoxicity, MTT method; assay type: cell-based; conditions: 72 h, 3 days at 37° C., read-out: IC50 (concentration at which the number of cells was decreased by 50%)
Method: Human KB cells were spread in a proportion of 1×10^5 cells/well on a 96-well plate. After a compound according to the present invention was dissolved in purified water, the solution was diluted to various concentrations with an RPMI 1640 medium and then added to each well, thereby conducting culture. After incubating at 37° C. for 3 days in a 5% CO2-incubator, the number of cells was counted by an MTT method.
The cytotoxicity of each of the compounds tested was expressed by a concentration (IC50) of the compound at which the number of cells was decreased by 50% compared with a control.

[2] = dose 1 mg/kg i.p. on day 1 and day 5
[3] = dose 3 mg/kg i.p. on day 1 and day 5

Row | Structure (SMILES) | melting point | other results
1 | C#C[C@@]1(O)[C@@H](CO)O[C@@H](n2ccc(N)nc2=O)[C@@H]1O [Compound 2, 1-(3-C-ethynyl-β-D-ribofuranosyl) cytosine] |  | survival rate T/C (%) [1, 2]: 211%; survival rate T/C (%) [1, 3]: 206%
2 | CC#C[C@@]1(O)[C@@H](CO)O[C@@H](n2ccc(=O)[nH]c2=O)[C@@H]1O [Compound 24, 1-(3-C-(1-propynyl)-β-D-ribofuranosyl)uracil] | 211 to 213 °C | 
3 | CC[C@@]1(O)[C@@H](CO)O[C@@H](n2ccc(=O)[nH]c2=O)[C@@H]1O [Comparative compound 1, 1-(3-C-ethyl-β-D-ribofuranosyl)uracil, reference compound] |  | IC50 (Human KB cells): > 100000 ng/mL
4 | C=C[C@@]1(O)[C@@H](CO)O[C@@H](n2ccc(N)nc2=O)[C@@H]1O [Compound 22, 1-(3-C-ethenyl-β-D-ribofuranosyl) cytosine] | 194 to 197 °C | 
5 | CCC#C[C@@]1(O)[C@@H](CO)O[C@@H](n2ccc(N)nc2=O)[C@@H]1O (as salt: salt) [Compound 20, 1-(3-C-(1-butynyl)-β-D-ribofuranosyl) cytosine] | 181 to 184 °C | 
6 | C#C[C@@]1(O)[C@@H](CO)O[C@@H](n2ccc(=O)[nH]c2=O)[C@@H]1O [Compound 7, 1-(3-C-ethynyl-β-D-ribofuranosyl) uracil] |  | survival rate T/C (%) [1, 2]: 144%; survival rate T/C (%) [1, 3]: 150%; IC50 (Human KB cells): 7.7 ng/mL (≈ 0.0287 µM)
7 | C#C[C@@]1(O)[C@@H](CO)O[C@@H](n2cnc3c(=O)[nH]c(N)nc32)[C@@H]1O [Compound 16, 9-(3-C-ethynyl-β-D-ribofuranosyl) guanine] | 225 °C (dec.) | 
8 | CCC#C[C@@]1(O)[C@@H](CO)O[C@@H](n2ccc(=O)[nH]c2=O)[C@@H]1O [Compound 26, 1-(3-C-(1-butynyl)-β-D-ribofuranosyl) uracil] | 139 to 142 °C | 
9 | C[Si](C)(C)C#C[C@@]1(O)[C@@H](CO)O[C@@H](n2ccc(=O)[nH]c2=O)[C@@H]1O [Compound 35, 1-(3-C-trimethylsilylethynyl-β-D-ribofuranosyl)uracil] | 175 to 177 °C | IC50 (Human KB cells): 7.8 ng/mL (≈ 0.0229 µM)
10 | C=C[C@@]1(O)[C@@H](CO)O[C@@H](n2ccc(=O)[nH]c2=O)[C@@H]1O [Compound 28, 1-(3-C-ethenyl-β-D-ribofuranosyl) uracil] | 219 to 222 °C | 
11 | C#C[C@@]1(O)[C@@H](CO)O[C@@H](n2cc(C)c(=O)[nH]c2=O)[C@@H]1O [Compound 12, 1-(3-C-ethynyl-β-D-ribofuranosyl) thymine] | 113 to 118 °C | 
12 | C#C[C@@]1(O)[C@@H](CO)O[C@@H](n2c(=O)cc[nH]c2=O)[C@@H]1O [Compound 8, 3-(3-C-ethynyl-β-D-ribofuranosyl) uracil] | 255 °C (dec.) | 
13 | CC#C[C@@]1(O)[C@@H](CO)O[C@@H](n2ccc(N)nc2=O)[C@@H]1O (as salt: salt) [Compound 18, 1-(3-C-(1-propynyl)-β-D-ribofuranosyl)cytosine] | 162 to 165 °C | 
14 | C#C[C@@]1(O)[C@@H](CO)O[C@@H](n2cc(F)c(N)nc2=O)[C@@H]1O [Compound 4, 1-(3-C-ethynyl-β-D-ribofuranosyl)-5-fluorocytosine] | 242 °C (dec.) | 
